Data reported in patent US20130310374A1, “Substituted Imidazoquinoline Derivatives” (PIRAMAL ENTERPRISES LIMITED`, priority 2010, published 2013).
Read-outs that look alike come from different tables or passages of the source.

Legend:
LN229 = assay: Cytotoxicity propidium iodide assay, LN229; assay type: cell-based; settings: LN229 (glioblastoma), 48 hours treatment; read-out: IC50 Values in μM, C5a
Protocol: (§1) The assay was designed as in the reference, Anticancer Drugs, 2002, 13, 1-8, the disclosure of which is incorporated herein by reference for the teaching of the assay.
(§2) Cells from cell lines (ATCC) as mentioned in the table given below were seeded at a density of 3000 cells/well in a white opaque 96-well plate. Following incubation at 37° C./5% CO2 for a period of 18-24 hours, the cells were treated with various concentrations (stock solution was prepared in DMSO and subsequent dilutions were made in media as per ATCC guidelines) of the compounds of the present invention for a period of 48 hours. At the end of treatment, the culture medium was discarded, the cells were washed with 1×PBS and 200 μL of […] propidium iodide was added to each well. The plates were frozen at 70° C. overnight. For analysis, the plates were warmed to RT, allowed to thaw and were read in PoleStar fluorimeter with the fluorescence setting. The percentage of viable cells in the non-treated set of wells was considered to be 100 and the percentage viability following treatment was calculated accordingly. IC50 values were calculated from graphs plotted using these percentages. IC50 values for certain compounds of present invention are depicted in Table 1 and % Inhibition of certain compounds of present invention are depicted in Table 2.

LN18 = assay: Cytotoxicity propidium iodide assay, LN18; assay type: cell-based; settings: LN18 (glioblastoma), 48 hours treatment; read-out: IC50 Values in μM, C5b
Protocol: as §1, §2

K562 = assay: Cytotoxicity propidium iodide assay, K562; assay type: cell-based; settings: K562 (CML), 48 hours treatment, read-out: IC50 Values in μM, C6a
Protocol: as §1, §2

KU812/SR = assay: Cytotoxicity propidium iodide assay, KU812/SR; assay type: cell-based; settings: KU812/SR (CML), 48 hours treatment; read-out: IC50 Values in μM, C6c
Protocol: as §1, §2

KCL22/SR = assay: Cytotoxicity propidium iodide assay, KCL22/SR; assay type: cell-based; settings: KCL22/SR (CML), 48 hours treatment; read-out: IC50 Values in μM, C6e
Protocol: as §1, §2

PI3K/mTOR pathway = assay: Western blot analysis in A2780 ovarian cancer cell line; assay type: cell-based; settings: A2780 cells treated for 1 hour; FIG. 1A-1E
Protocol: Protocol for Western Blot Analysis
A2780 ovarian cancer cell line (ATCC) were grown to approximately 70% confluence in 100-mm tissue culture dishes and then treated for 1 hour with […] compounds of Example 2, 3, 5, 16, 19, 55 and 59. Total protein was extracted using cell lysis buffer (NaCl […], NP40 0.67%, Tris-Cl, pH 7.5, 67 mM) containing protease inhibitors and phosphatase inhibitors (Beta-glycerol phosphate 40 mM, DTT 1 mM, NaF 0.4 mM, Sodium-Orthovanadate 0.4 mM) at 4° C. for 1 hour. Cell lysates were then centrifuged at 2×10^4 g for 10 minutes at 4° C., and the protein concentration of the supernatant was quantified using the Bradford's method (BioRad, USA). For SDS-PAGE, 50 μg protein was loaded in SDS-PAGE, transferred to a polyvinylidene difluoride membrane (Bio-Rad, USA) and blocked with 5 mL buffer [5% skim milk and 0.1% Tween] for 1 hour 30 minutes. Membrane were probed with primary antibody (all primary antibodies were from cell signaling with 1:1000 in TBST solution) of respective protein at 4° C. overnight. Peroxidase-labeled anti-rabbit or anti-mouse antibodies (Santacruze, USA) were used as the secondary antibody. Actin and respective whole protein levels were used as the control for protein loading. Protein antigens were detected using Chemiluminescent Substrate (Thermo scientific, USA) and exposed on Kodak station.

A2780 = assay: Cytotoxicity propidium iodide assay, A2780; assay type: cell-based; settings: Homo sapiens; for IC50: A2780 (ovarian), 48 hours treatment, read-out: IC50 Values in μM, C1a; for inhibition at 1 µM: A2780, 1 μM, 48 hours, read-out: % Inhibition at 1 μM, C1a
Protocol: as §1, §2

PC3 = assay: Cytotoxicity propidium iodide assay, PC3; assay type: cell-based, human; settings: Homo sapiens, PC-3; for IC50: PC3 (prostate), 48 hours treatment, read-out: IC50 Values in μM, C2a; for inhibition at 1 µM: PC3, 1 μM, 48 hours, read-out: % Inhibition at 1 μM, C2a
Protocol: as §1, §2

MDA MB 231 = assay: Cytotoxicity propidium iodide assay, MDA MB 231; assay type: cell-based; settings: Homo sapiens; MDA MB 231 (breast), 48 hours treatment; read-out: IC50 Values in μM, C3a
Protocol: as §1
as §2, with “The plates were frozen at 70° C. overnight.” left out

MDA MB 468 = assay: Cytotoxicity propidium iodide assay, MDA MB 468; assay type: cell-based; settings: Homo sapiens; MDA MB 468 (breast), 48 hours treatment; read-out: IC50 Values in μM, C3b
Protocol: as §1, §2

BT 549 = assay: Cytotoxicity propidium iodide assay, BT 549; assay type: cell-based; settings: Homo sapiens; BT 549 (breast), 48 hours treatment; read-out: IC50 Values in μM, C3c
Protocol: as §1, §2

MCF7 = assay: Cytotoxicity propidium iodide assay, MCF7; assay type: cell-based; settings: Homo sapiens; MCF7 (breast), 48 hours treatment; read-out: IC50 Values in μM, C3d
Protocol: as §1, §2

PANC 1 = assay: Cytotoxicity propidium iodide assay, PANC 1; assay type: cell-based; settings: Homo sapiens; PANC 1 (pancreatic), 48 hours treatment; read-out: IC50 Values in μM, C4a
Protocol: as §1, §2

AsPC 1 = assay: Cytotoxicity propidium iodide assay, AsPC 1; assay type: cell-based; settings: Homo sapiens, ASPC1; AsPC 1 (pancreatic), 48 hours treatment; read-out: IC50 Values in μM, C4b
Protocol: as §1
as §2, with “The plates were frozen at 70° C. overnight.” left out

BxPC3 = assay: Cytotoxicity propidium iodide assay, BxPC3; assay type: cell-based; settings: Homo sapiens, BXPC-3; BxPC3 (pancreatic), 48 hours treatment; read-out: IC50 Values in μM, C4c
Protocol: as §1, §2

Compound	IC50 (A2780) [µM]	IC50 (PC3) [µM]	IC50 (MDA MB 231) [µM]	IC50 (MDA MB 468) [µM]	IC50 (BT 549) [µM]	IC50 (MCF7) [µM]	IC50 (PANC 1) [µM]	IC50 (AsPC 1) [µM]	IC50 (BxPC3) [µM]	other results
1-(6-Chloro-2,4′-bipyridin-3-yl)-3-methyl-8-(pyridin-3-yl)-1H-imidazo[4,5-c]quinolin-2(3H)-one [Example 72]										IC50 (LN229): 0.44 µM; IC50 (LN18): 0.992 µM; IC50 (K562): 0.0144 µM; IC50 (KU812/SR): 1.14 µM; IC50 (KCL22/SR): 0.23 µM
Cn1c(=O)n(-c2ccc(C(C)(C)C#N)nc2)c2c3cc(-c4ccc5ncccc5c4)ccc3ncc21 [Example 5, 2-Methyl-2-(5-(3-methyl-2-oxo-8-(quinolin-6-yl)-2,3-dihydro-1H-imidazo[4,5-c]quinolin-1-yl)pyridin-2-yl)propanenitrile]	0.08	0.38								Akt, S6 and 4EBP1 phosphorylation (Western blot) (PI3K/mTOR pathway): inhibit Akt, S6 and 4EBP1 phosphorylation
CC(C)(C#N)c1ccc(-n2c(=O)n(CC#N)c3cnc4ccc(-c5cnc6ccccc6c5)cc4c32)cn1 [Example 17, 2-(5-(3-(Cyanomethyl)-2-oxo-8-(quinolin-3-yl)-2,3-dihydro-1H-imidazo[4,5-c]quinolin-1-yl)pyridin-2-yl)-2-methylpropanenitrile]	0.065	0.17	0.17	0.45	0.37	0.25	0.23	0.24	0.085	
Cn1c(=O)n(-c2ccc(C#N)nc2)c2c3cc(-c4cccnc4)ccc3ncc21 [Example 49, 5-(3-Methyl-2-oxo-8-(pyridin-3-yl)-2,3-dihydro-1H-imidazo[4,5-c]quinolin-1-yl)picolinonitrile]	0.009	0.017	0.016	0.065	0.3	0.03	0.035	0.025	0.04	
Cn1c(=O)n(-c2ccc(C(F)(F)F)nc2)c2c3cc(-c4cnc5ccccc5c4)ccc3ncc21 [Example 54, 3-Methyl-8-(quinolin-3-yl)-1-(6-(trifluoromethyl)pyridin-3-yl)-1H-imidazo[4,5-c]quinolin-2(3H)-one]	0.16	0.55	0.55	1.2	1	0.8	0.95	0.55	0.78	
Cn1c(=O)n(-c2ccc(C(F)(F)F)nc2)c2c3cc(-c4ccc(C(F)(F)F)nc4)ccc3ncc21 [Example 56, 3-Methyl-1,8-bis(6-(trifluoromethyl)pyridin-3-yl)-1H-imidazo [4,5-c]quinolin-2(3H)-one]										inhibition at 1 µM (A2780): 57%; inhibition at 1 µM (PC3): 32%
Cn1c(=O)n(-c2ccc(C(F)(F)F)nc2Cl)c2c3cc(-c4cnc(N)c(C(F)(F)F)c4)ccc3ncc21 [Example 59, 8-(6-Amino-5-(trifluoromethyl)pyridin-3-yl)-1-(2-chloro-6-(trifluoromethyl)pyridin-3-yl)-3-methyl-1H-imidazo[4,5-c]quinolin-2(3H)-one]	< 0.01	0.018	< 0.01	0.07	0.04	0.013	0.017	0.042	< 0.01	Akt, S6 and 4EBP1 phosphorylation (Western blot) (PI3K/mTOR pathway): inhibit Akt, S6 and 4EBP1 phosphorylation
Cn1c(=O)n(-c2ccc(Cl)nc2)c2c3cc(-c4cccnc4)ccc3ncc21 [Example 60, 1-(6-Chloropyridin-3-yl)-3-methyl-8-(pyridin-3-yl)-1H-imidazo[4,5-c]quinolin-2(3H)-one]	0.68	0.85								
Cn1c(=O)n(-c2ccc(Cl)nc2C(F)(F)F)c2c3cc(-c4cccnc4)ccc3ncc21 [Example 63, 1-(6-Chloro-2-(trifluoromethyl)pyridin-3-yl)-3-methyl-8-(pyridin-3-yl)-1H-imidazo[4,5-c]quinolin-2 (3H)-one]					5.6	4				inhibition at 1 µM (A2780): 88%; inhibition at 1 µM (PC3): 53%; IC50 (K562; Homo sapiens): 0.224 µM
Cn1c(=O)n(-c2ccc3ncccc3c2)c2c3cc(-c4cnc(N)c(C(F)(F)F)c4)ccc3ncc21 [Example 67, 8-(6-Amino-5-(trifluoromethyl)pyridin-3-yl)-3-methyl-1-(quinolin-6-yl)-1H-imidazo[4,5-c]quinolin-2 (3H)-one]	0.006	0.015	0.012	0.05	0.011	0.02	0.025	0.035	0.0085	
Cn1c(=O)n(CCN2CCOCC2)c2c3cc(-c4cccnc4)ccc3ncc21 [Example 68, 3-Methyl-1-(2-morpholinoethyl)-8-(pyridin-3-yl)-1H-imidazo[4,5-c]quinolin-2(3H)-one]	1.4	2.4	2.3	7	> 10	3	4.6	4.6	2.4	
Cn1c(=O)n(CCN2CCOCC2)c2c3cc(-c4cnc(N)c(C(F)(F)F)c4)ccc3ncc21 [Example 69, 8-(6-Amino-5-(trifluoromethyl)pyridin-3-yl)-3-methyl-1-(2-morpholinoethyl)-1H-imidazo[4,5-c]quinolin-2(3H)-one]	0.022	0.07								
